{"source": "paper PMC9709406", "about": "(Frontiers in Pharmacology, 2022)", "key": {"H1650 cells": {"tested_on": "H1650 cells", "experiment": "MTT assay for cell proliferation and cytotoxicity, H1650", "type": "cell-based", "conditions": "Homo sapiens, NCI-H1650, 48 h, H1650, n = 5", "in_short": "(§1)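 Cells in RPMI-1640 with 10% FBS (taxol-resistant lines kept in 100 nm/L paclitaxel) were seeded at 2,200–2,500 cells/well and dosed next day with compound at 0–50 μM, 0.1% DMSO as control. After 48 h, MTT was added for 1–4 h and absorbance read at 490 nm.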"}, "H1975 cells": {"tested_on": "H1975 cells", "experiment": "MTT assay for cell proliferation and cytotoxicity, H1975", "type": "cell-based, human", "conditions": "Homo sapiens, NCI-H1975, 48 h, MTT, 48 h, H1975, n = 5; read-out: IC50 48 h H1975", "in_short": "as §1"}, "H1650TR cells": {"tested_on": "H1650TR cells", "experiment": "MTT assay, taxol-resistant H1650TR", "type": "cell-based", "conditions": "Homo sapiens, NCI-H1650, 48 h, value in parentheses in H1650 column", "source_text": "(§2) The human cancer cells (H1650, H1975, KYSE70, KYSE410 and KYSE450) were purchased from the Type Culture Collection of the Chinese Academy of Sciences (Shanghai, China). The human immortalized normal esophageal epithelial cell line SHEE was donated by Dr. Enmin Li from the Laboratory of Tumor Pathology (Shantou University Medical College, Shantou, Guangdong, China). Drug-resistant cells (H1650TR, H1975OR, KYSE70TR, KYSE410TR and KYSE450TR) were induced by China-US (Henan) Hormel Cancer Institute. The cellswere cultured in RPMI-1640 complete growth medium containing 100 U/mL penicillin-streptomycin and 10% FBS. Based on the above medium formula, 100 nm/L paclitaxel was added in taxol-resistant cells, 100 nm/L gefitinib was added in gefitinib-resistant cells. The cells were incubated at 37 °C in an atmosphere containing 5% of CO2. The compounds were dissolved in DMSO to make a 50 mM stock solution and were diluted to the concentration of working solutions with complete growth medium before administration.\n(§3) Cells were seeded in 96-well plates with 2,200–2,500 cells/well in100 μL. One day after seeding, test compounds with the concentration between 0 and 50 μM were added with 0.1% DMSO as control. Five multiple wells for each concentration. After 48 h, MTT was added and incubated in the plate for 1–4 h in the incubator. The absorbance at 490 nm was measured using a microplate reader (Thermo)."}, "H1975OR cells": {"tested_on": "H1975OR cells", "experiment": "MTT assay, osimertinib-resistant H1975OR", "type": "cell-based", "conditions": "Homo sapiens, NCI-H1975, 48 h, osimertinib-resistant H1975OR, value in parentheses in H1975 column, read-out: IC50 48 h H1975OR (data in parentheses) (converted)", "source_text": "as §2\nas §3, with “After 48 h, MTT was added and incubated in the plate for 1–4 h in the incubator.” left out"}, "SHEE cells": {"tested_on": "SHEE cells", "experiment": "MTT assay, normal esophageal epithelial cell line SHEE", "type": "cell-based", "conditions": "Homo sapiens, 48 h, n = 5", "in_short": "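Growth inhibition is measured by MTT reduction (A490) following 48 h treatment across 0–50 μM compound, with 0.1% DMSO as control. Taxol-resistant sublines are cultured in medium carrying 100 nm/L paclitaxel.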"}, "KYSE450 cells [1]": {"tested_on": "KYSE450 cells", "experiment": "MTT assay, KYSE450", "type": "cell-based, human", "conditions": "for IC50: Homo sapiens, KYSE-450", "in_short": "as §1"}, "KYSE70TR cells": {"tested_on": "KYSE70TR cells", "experiment": "MTT assay, taxol-resistant KYSE70TR", "type": "cell-based, human", "conditions": "for blank-corrected absorbance 490 nm relative to control (fraction) / inhibition (1 minus fraction of control): 70TR", "source_text": "as §2\nas §3, with “After 48 h, MTT was added and incubated in the plate for 1–4 h in the incubator.” left out"}, "EGFR": {"biological_target": "T1, EGFR (Homo sapiens, UniProt P00533)", "T1 construct": "purchased Active MOTIF", "T1 sequence (P00533 25-1210)": "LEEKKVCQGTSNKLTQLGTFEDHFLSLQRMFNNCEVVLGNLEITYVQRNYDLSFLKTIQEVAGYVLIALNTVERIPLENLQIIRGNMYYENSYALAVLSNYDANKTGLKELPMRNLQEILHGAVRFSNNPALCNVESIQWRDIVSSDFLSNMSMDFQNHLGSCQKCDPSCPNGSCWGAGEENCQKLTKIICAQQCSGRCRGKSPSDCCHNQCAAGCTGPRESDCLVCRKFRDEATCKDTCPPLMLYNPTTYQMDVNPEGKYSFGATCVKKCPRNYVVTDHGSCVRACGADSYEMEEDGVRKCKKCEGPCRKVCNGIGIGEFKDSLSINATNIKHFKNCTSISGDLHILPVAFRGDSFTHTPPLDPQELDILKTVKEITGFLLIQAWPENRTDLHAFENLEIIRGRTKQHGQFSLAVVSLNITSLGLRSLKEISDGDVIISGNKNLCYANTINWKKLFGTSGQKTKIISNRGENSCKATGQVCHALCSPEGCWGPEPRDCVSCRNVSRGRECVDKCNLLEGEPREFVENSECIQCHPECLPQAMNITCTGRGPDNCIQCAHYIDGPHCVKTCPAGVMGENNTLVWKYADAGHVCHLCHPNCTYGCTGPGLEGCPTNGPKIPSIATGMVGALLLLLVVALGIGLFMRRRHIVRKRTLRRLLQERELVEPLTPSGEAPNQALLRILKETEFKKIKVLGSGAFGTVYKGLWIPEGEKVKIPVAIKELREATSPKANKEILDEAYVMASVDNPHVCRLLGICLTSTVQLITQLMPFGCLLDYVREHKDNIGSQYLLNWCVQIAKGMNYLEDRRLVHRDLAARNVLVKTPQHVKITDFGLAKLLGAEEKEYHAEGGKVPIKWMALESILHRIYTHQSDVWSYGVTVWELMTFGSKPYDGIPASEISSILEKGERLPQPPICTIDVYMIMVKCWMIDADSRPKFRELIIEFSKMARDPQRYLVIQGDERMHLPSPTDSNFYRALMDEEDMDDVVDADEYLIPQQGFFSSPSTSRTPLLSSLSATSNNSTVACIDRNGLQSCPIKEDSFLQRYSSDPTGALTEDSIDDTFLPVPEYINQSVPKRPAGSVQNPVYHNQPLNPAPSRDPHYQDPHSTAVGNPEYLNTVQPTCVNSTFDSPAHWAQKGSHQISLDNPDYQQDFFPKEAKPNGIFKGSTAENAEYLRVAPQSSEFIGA", "experiment": "EGFR kinase assay (ELISA)", "type": "biochemical", "conditions": "25°C", "in_short": "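ELISA-format tyrosine kinase kit assay with commercially sourced EGFR enzyme. Active kinase and compounds were incubated in 1× reaction buffer with 20 μM substrate at 25 °C for 1 h and 2 h. Absorbance was read at 450 nm.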"}, "KYSE450 cells [2]": {"tested_on": "KYSE450 cells", "experiment": "Annexin V/PI flow cytometry for apoptosis, KYSE450", "type": "cell-based, human", "conditions": "48 h", "protocol": "(§4) Cell-apoptosis analysis was carried out by flow cytometry using the Annexin V/PI apoptosis methods. […] Cells were harvested and incubated with 250 μL of 1 × Annexin V binding buffer containing 5 μL PI and 5 μL FITC Annexin V (final concentration 1.8 μg/ml, Biolegend (cat: 640945) for 15 min at room temperature in dark. 200 µL of 1 × binding buffer was added for flow cytometry analysis (BD FACSCalibur™ Flow Cytometer)."}, "KYSE450TR cells [3]": {"tested_on": "KYSE450TR cells", "experiment": "Annexin V/PI flow cytometry for apoptosis, KYSE450TR", "type": "cell-based, human", "conditions": "48 h", "protocol": "as §4"}, "KYSE450TR cells [4]": {"tested_on": "KYSE450TR cells", "experiment": "Cell cycle analysis by flow cytometry, KYSE450TR", "type": "cell-based, human", "conditions": "24 h, icotinib at 8 μM, 3l at 8 μM", "protocol": "KYSE450/KYSE450TR cells were plated in 6-well plates with a density of 1×10^5 cells/well and cultured overnight. […] Trypsinization treatment and the cells were collected by centrifugation. The cell pellet was re-suspended in 70% ethanol at −20°C for at least 3 h. The cells were washed with PBS and were re-suspended in 250 μL of 0.6% tricine with Renease A for 1 h, then stained in PI (final concentration 1.8 μg/ml, Biolegend cat: 640945) for 15 min in dark. Cells were retransferred to the BD FACSCalibur™ Flow Cytometer. All analyses were performed with FlowJo software v105.3.6."}, "[5]": {"tested_on": "EGFR-TK pathway in KYSE450 cells", "experiment": "Western blot of EGFR-TK pathway proteins, KYSE450", "type": "cell-based, human", "conditions": "KYSE450, 3 μM", "protocol": "(§5) Cells treated with 1% DMSO were used as control. Then the cells were harvested and total proteins were extracted. Total proteins were separated by 12% SDS polyacrylamide gel electrophoresis and transferred onto PVDF membranes. The membrane was blocked for 1 h, then incubated overnight with a 1 : 1000 dilution of anti-EGFR, anti-p-EGFR (Tyr1068/Tyr1086), anti-Erk1/2, and anti-p-Erk1/2 (Thr202/Tyr204), or 1 : 3000 dilution of anti-GAPDH primary antibody at 4°C. 1 : 3000 anti-rabbit secondary antibodies incubated for 2 h at room temperature. Protein bands were developed by chemiluminescence."}, "[6]": {"tested_on": "EGFR-TK pathway in KYSE450TR cells", "experiment": "Western blot of EGFR-TK pathway proteins, KYSE450TR", "type": "cell-based, human", "conditions": "3 μM, vs control", "protocol": "as §5"}}, "note": "Where two headings read alike, the source gives them in different places."}
{"smiles": "FC(F)(F)c1ccc(-n2cc(-c3cccc(Nc4ncnc5cc6c(cc45)OCCOCCOCCO6)c3)nn2)cc1", "note": "[compound 3l]", "values": [{"measurement": "IC50", "setting": "H1650 cells", "result": "4.4 ± 0.32", "unit": "µM"}, {"measurement": "IC50", "setting": "H1975 cells", "result": "3.26 ± 0.26", "unit": "µM"}, {"measurement": "IC50", "setting": "H1650TR cells", "result": 8.43, "unit": "µM"}, {"measurement": "IC50", "setting": "H1975OR cells", "result": 9.73, "unit": "µM"}, {"measurement": "IC50", "setting": "SHEE cells", "result": "4.82 ± 0.23", "unit": "µM"}, {"measurement": "IC50", "setting": "KYSE450 cells [1]; KYSE450, MTT, 490 nm, read-out: IC50", "result": 4, "unit": "µM"}, {"measurement": "IC50", "setting": "KYSE450 cells [1]; MTT, 48 h, KYSE450, n = 5, read-out: IC50 48 h KYSE450", "result": "3.4 ± 0.16", "unit": "µM"}, {"measurement": "blank-corrected absorbance 490 nm relative to control (fraction)", "setting": "KYSE450 cells [1]; KYSE450, concentration 2", "result": 0.4268}, {"measurement": "inhibition (1 minus fraction of control)", "setting": "KYSE450 cells [1]; KYSE450, concentration 2", "result": 0.5732}, {"measurement": "blank-corrected absorbance 490 nm relative to control (fraction)", "setting": "KYSE450 cells [1]; KYSE450, concentration 4", "result": 0.4691}, {"measurement": "inhibition (1 minus fraction of control)", "setting": "KYSE450 cells [1]; KYSE450, concentration 4", "result": 0.5309}, {"measurement": "blank-corrected absorbance 490 nm relative to control (fraction)", "setting": "KYSE450 cells [1]; KYSE450, concentration 8", "result": 0.05646}, {"measurement": "inhibition (1 minus fraction of control)", "setting": "KYSE450 cells [1]; KYSE450, concentration 8", "result": 0.9435}, {"measurement": "blank-corrected absorbance 490 nm relative to control (fraction)", "setting": "KYSE70TR cells; concentration 3", "result": 0.722}, {"measurement": "inhibition (1 minus fraction of control)", "setting": "KYSE70TR cells; concentration 3", "result": 0.278}, {"measurement": "blank-corrected absorbance 490 nm relative to control (fraction)", "setting": "KYSE70TR cells; concentration 6", "result": 0.41}, {"measurement": "inhibition (1 minus fraction of control)", "setting": "KYSE70TR cells; concentration 6", "result": 0.59}, {"measurement": "blank-corrected absorbance 490 nm relative to control (fraction)", "setting": "KYSE70TR cells; concentration 12", "result": 0.2379}, {"measurement": "inhibition (1 minus fraction of control)", "setting": "KYSE70TR cells; concentration 12", "result": 0.7621}, {"measurement": "IC50", "setting": "KYSE70TR cells; Homo sapiens, MTT, 48 h, taxol-resistant KYSE70TR, value in parentheses, read-out: IC50 48 h KYSE70TR (data in parentheses) (converted)", "result": 5.13, "unit": "µM"}, {"measurement": "IC50", "setting": "EGFR; incubation 1 h, read-out: IC50 EGFR 1 h", "result": 0.42, "unit": "µM"}, {"measurement": "IC50", "setting": "EGFR; incubation 2 h, read-out: IC50 EGFR 2 h", "result": 1.67, "unit": "µM"}, {"measurement": "proportion of apoptotic cells", "setting": "KYSE450 cells [2]; KYSE450, 2 μM", "result": 24.32, "unit": "%"}, {"measurement": "proportion of apoptotic cells", "setting": "KYSE450 cells [2]; KYSE450, 4 μM", "result": 39.89, "unit": "%"}, {"measurement": "proportion of apoptotic cells", "setting": "KYSE450TR cells [3]; 5 μM", "result": 32.12, "unit": "%"}, {"measurement": "proportion of apoptotic cells", "setting": "KYSE450TR cells [3]; 10 μM", "result": 83.69, "unit": "%"}, {"measurement": "cell cycle phase in which cells were arrested", "setting": "KYSE450TR cells [4]", "result": "G2/M phase"}, {"measurement": "EGFR (Tyr1068) protein levels, 3l group compared with icotinib group", "setting": "[5]", "result": "no obvious difference"}, {"measurement": "ERK1/2 protein levels", "setting": "[5]; vs control", "result": "lower than the control at 0.5, 1, 2, 3, and 6 h"}, {"measurement": "P-EGFR (Tyr1068) protein levels", "setting": "[5]; vs control", "result": "lower than the control at 1 h"}, {"measurement": "P-EGFR (Tyr1086) protein levels", "setting": "[5]; vs control", "result": "lower than the control at 0.5, 1, 2, 3, and 6 h"}, {"measurement": "P-ERK1/2 (Thr202/Tyr204) protein levels", "setting": "[5]; vs control", "result": "lower than the control at 0.5, 1, 2, 3, and 6 h"}, {"measurement": "P-EGFR (Tyr1068) protein levels", "setting": "[6]", "result": "lower than the control at 1 and 2 h"}, {"measurement": "P-ERK1/2 (Thr202/Tyr204) protein levels", "setting": "[6]", "result": "lower than the control at 6 h"}]}
